# Assay results as given in patent US20230416712A1, “APPLICATION OF SUBSTANCE THAT REDUCES THE CONTENT OR ACTIVITY OF KAT7 IN PREVENTING SENESCENCE AND TREATING HEPATIC FIBROSIS” (INSTITUTE OF ZOOLOGY, CHINESE ACADEMY OF SCIENCES, priority 2020, published 2023).
# How the values were obtained:
# [1] = test system: WS mesenchymal precursor cells (WS hMPCs); test: Senescence of WS hMPCs treated with KAT7 inhibitor; format: cell-based, human; conditions: 50 nM; passages 2-3 after treatment; DMSO control; FIGS. 6C-6D
# Method: Passage-4 WS mesenchymal precursor cells (WS hMPCs) in example 1 were used as test cells, and the cells were treated with a DMSO solution of 50 nM of WM-3835. The WM-3835 (with a structural formula as shown in a of FIGS. 6A-6I) was synthesized by entrusting WuXi AppTec, and a DMSO solvent was used as a control.
# After the treatment, the cells were continuously passaged to passages 2-3. The cells were collected to detect a KAT7 protein knockdown efficiency (FIG. 6B), and SA-β-gal staining of cell senescence markers and detection of a cell proliferation molecular marker (Ki67) were performed.
# [2] = test system: Human primary hepatocytes (hHEPs); test: Senescence of human primary hepatocytes treated with KAT7 inhibitor; format: cell-based; conditions: 100 nM
# Method: Human primary hepatocytes (hHEPs) were used as test cells (a product of Lonza, with an article No. of HUCPI), and the cells were treated with a DMSO solution of 100 nM of WM-3835, and DMSO was used as a control.
smiles,measurement,setting,value
Cc1cc(-c2ccccc2)cc(C(=O)NNS(=O)(=O)c2cccc(O)c2)c1F [WM-3835],"senescence of WS hMPCs (SA-β-gal staining, Ki67)",[1],can delay the senescence of WS hMPCs
same,expressions of inflammatory genes and SASP-associated genes (RNA-seq),[2]; FIGS. 6E-6I,down-regulated
same,expressions of metabolism-related genes (RNA-seq),[2]; FIGS. 6E-6I,up-regulated
same,"senescence of hepatocytes (P15, IL6 by RT-qPCR)","[2]; cultured 8 d, compared with DMSO group",significantly delay the senescence of hepatocytes
